Source: patent US20260191968A1, “PROTAC DEGRADERS OF MLLT1 AND/OR MLLT3” (DARK BLUE THERAPEUTICS LTD, priority 2024, published 2026)

Biological target: T1, MLLT1 (Homo sapiens, UniProt Q03111)
T1 construct: host or cells: MV4-11
T1 sequence (Q03111 1-559): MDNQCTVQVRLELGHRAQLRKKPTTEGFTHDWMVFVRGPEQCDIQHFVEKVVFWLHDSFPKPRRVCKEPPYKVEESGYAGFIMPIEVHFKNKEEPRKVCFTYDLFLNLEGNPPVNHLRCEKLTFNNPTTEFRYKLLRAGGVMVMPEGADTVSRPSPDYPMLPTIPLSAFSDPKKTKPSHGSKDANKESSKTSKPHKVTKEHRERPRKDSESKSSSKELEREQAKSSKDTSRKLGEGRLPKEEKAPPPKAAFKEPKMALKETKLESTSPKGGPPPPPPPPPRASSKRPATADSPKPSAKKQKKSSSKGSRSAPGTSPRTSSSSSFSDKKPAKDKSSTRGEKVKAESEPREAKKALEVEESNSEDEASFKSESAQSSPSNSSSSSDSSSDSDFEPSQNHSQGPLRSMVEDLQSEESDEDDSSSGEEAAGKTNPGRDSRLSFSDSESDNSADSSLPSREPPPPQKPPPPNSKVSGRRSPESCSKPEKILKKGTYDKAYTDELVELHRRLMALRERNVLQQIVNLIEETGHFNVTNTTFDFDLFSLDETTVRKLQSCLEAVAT
Assay: MLLT1 degradation assay in MV4-11 cells (JESS chemiluminescent detection), three concentrations, 24 h
Assay type: cell-based
Conditions: with respect to DMSO control
How it was run: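 Read-out is % MLLT1 degradation versus DMSO, from band peak areas on a JESS chemiluminescent system. Cells (MV4-11) were exposed for 24 h at 37° C to three compound levels, 10, 100 and 1000 nM, in 0.1% DMSO.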

Row | SMILES | MLLT1% Degradation @ 0.01 μM | MLLT1% Degradation @ 0.1 μM | MLLT1% Degradation @ 1 μM
1 | Cc1cc(OC2CCN(c3ccc(C(=O)Nc4cc5[nH]c([C@H]6CCCN6C)cc5cn4)c(F)c3)CC2)ccc1-c1cccc2c1CN(C1CCC(=O)NC1=O)C2=O (stereo partly drawn) [Example 203, 4-(4-(4-(2-(2,6-dioxopiperidin-3-yl)-1-oxoisoindolin-4-yl)-3-methylphenoxy)piperidin-1-yl)-2-fluoro-N-(2-((R)-1-methylpyrrolidin-2-yl)-1H-pyrrolo[3,2-c]pyridin-6-yl)benzamide] | C (Category C: 25% ≤ C < 50% degradation) | C (Category C: 25% ≤ C < 50% degradation) | B (Category B: 50% ≤ B < 75% degradation)
2 | Cc1cc(OCCC2CCN(c3cccc4c3CN(C3CCC(=O)NC3=O)C4=O)CC2)ccc1C(=O)Nc1cc2[nH]c([C@H]3CCCN3C)cc2cn1 (stereo partly drawn) [Example 204, 4-(2-(1-(2-(2,6-dioxopiperidin-3-yl)-1-oxoisoindolin-4-yl)piperidin-4-yl)ethoxy)-2-methyl-N-(2-((R)-1-methylpyrrolidin-2-yl)-1H-pyrrolo[3,2-c]pyridin-6-yl)benzamide] | C (Category C: 25% ≤ C < 50% degradation) | B (Category B: 50% ≤ B < 75% degradation) | B (Category B: 50% ≤ B < 75% degradation)
3 | CN1CCC[C@@H]1c1cc2cnc(NC(=O)c3ccc(OCCC4CCN(c5cccc6c5CN(C5CCC(=O)NC5=O)C6=O)CC4)cc3Cl)cc2[nH]1 (stereo partly drawn) [Example 205, 2-chloro-4-(2-(1-(2-(2,6-dioxopiperidin-3-yl)-1-oxoisoindolin-4-yl)piperidin-4-yl)ethoxy)-N-(2-((R)-1-methylpyrrolidin-2-yl)-1H-pyrrolo[3,2-c]pyridin-6-yl)benzamide] | B (Category B: 50% ≤ B < 75% degradation) | A (Category A: A ≥ 75% degradation) | A (Category A: A ≥ 75% degradation)
4 | Cc1cc(CCOc2ccc(C(=O)Nc3cc4[nH]c([C@H]5CCCN5C)cc4cn3)c(F)c2)ccc1-c1cccc2c1CN(C1CCC(=O)NC1=O)C2=O (stereo partly drawn) [Example 208, 4-(4-(2-(2,6-dioxopiperidin-3-yl)-1-oxoisoindolin-4-yl)-3-methylphenethoxy)-2-fluoro-N-(2-((R)-1-methylpyrrolidin-2-yl)-1H-pyrrolo[3,2-c]pyridin-6-yl)benzamide] | A (Category A: A ≥ 75% degradation) | A (Category A: A ≥ 75% degradation) | A (Category A: A ≥ 75% degradation)
5 | CN1CCC[C@@H]1c1cc2cnc(NC(=O)c3ccc(OCC4CCN(c5cccc6c5CN(C5CCC(=O)NC5=O)C6=O)CC4)cc3F)cc2[nH]1 (stereo partly drawn) [Example 214, 4-((1-(2-(2,6-dioxopiperidin-3-yl)-1-oxoisoindolin-4-yl)piperidin-4-yl)methoxy)-2-fluoro-N-(2-((R)-1-methylpyrrolidin-2-yl)-1H-pyrrolo[3,2-c]pyridin-6-yl)benzamide] | A (Category A: A ≥ 75% degradation) | A (Category A: A ≥ 75% degradation) | A (Category A: A ≥ 75% degradation)
6 | CN1CCC[C@@H]1c1cc2cnc(NC(=O)c3ccc(OCCC4CCN(c5ccc(C(=O)N[C@H]6CCC(=O)NC6=O)c(F)c5)CC4)cc3F)cc2[nH]1 [Example 215, N—((S)-2,6-dioxopiperidin-3-yl)-2-fluoro-4-(4-(2-(3-fluoro-4-((2-((R)-1-methylpyrrolidin-2-yl)-1H-pyrrolo[3,2-c]pyridin-6-yl)carbamoyl)phenoxy)ethyl)piperidin-1-yl)benzamide] | D (Category D: D < 25% degradation) | C (Category C: 25% ≤ C < 50% degradation) | C (Category C: 25% ≤ C < 50% degradation)
7 | CN1CCC[C@@H]1c1cc2cnc(NC(=O)c3ccc(OCCC4CCN(c5cccc6c5C(=O)N(C5CCC(=O)NC5=O)C6=O)CC4)cc3F)cc2[nH]1 (stereo partly drawn) [Example 217, 4-(2-(1-(2-(2,6-dioxopiperidin-3-yl)-1,3-dioxoisoindolin-4-yl)piperidin-4-yl)ethoxy)-2-fluoro-N-(2-((R)-1-methylpyrrolidin-2-yl)-1H-pyrrolo[3,2-c]pyridin-6-yl)benzamide] | C (Category C: 25% ≤ C < 50% degradation) | A (Category A: A ≥ 75% degradation) | A (Category A: A ≥ 75% degradation)
8 | CN1CCC[C@@H]1c1cc2cnc(NC(=O)c3ccc(N4CCC(c5ccc(-c6cccc7c6CN(C6CCC(=O)NC6=O)C7=O)cc5)CC4)cc3F)cc2[nH]1 (stereo partly drawn) [Example 218, 4-(4-(4-(2-(2,6-dioxopiperidin-3-yl)-1-oxoisoindolin-4-yl)phenyl)piperidin-1-yl)-2-fluoro-N-(2-((R)-1-methylpyrrolidin-2-yl)-1H-pyrrolo[3,2-c]pyridin-6-yl)benzamide] | C (Category C: 25% ≤ C < 50% degradation) | A (Category A: A ≥ 75% degradation) | B (Category B: 50% ≤ B < 75% degradation)
9 | CN1CCC[C@@H]1c1cc2cnc(NC(=O)c3ccc(CCCC#Cc4cccc(C(=O)N[C@H]5CCC(=O)NC5=O)c4F)cc3)cc2[nH]1 [Example 219, N—((S)-2,6-dioxopiperidin-3-yl)-2-fluoro-3-(5-(4-((2-((R)-1-methylpyrrolidin-2-yl)-1H-pyrrolo[3,2-c]pyridin-6-yl)carbamoyl)phenyl)pent-1-yn-1-yl)benzamide] | A (Category A: A ≥ 75% degradation) | A (Category A: A ≥ 75% degradation) | B (Category B: 50% ≤ B < 75% degradation)
10 | CN1CCC[C@@H]1c1cc2cnc(NC(=O)c3cccc(N4CCN(CC5CCN(c6ccc7c(c6)C(=O)N(C6CCC(=O)NC6=O)C7=O)CC5)CC4)c3)cc2[nH]1 (stereo partly drawn) [Example 220, 3-(4-((1-(2-(2,6-dioxopiperidin-3-yl)-1,3-dioxoisoindolin-5-yl)piperidin-4-yl)methyl)piperazin-1-yl)-N-(2-((R)-1-methylpyrrolidin-2-yl)-1H-pyrrolo[3,2-c]pyridin-6-yl)benzamide] | D (Category D: D < 25% degradation) | C (Category C: 25% ≤ C < 50% degradation) | B (Category B: 50% ≤ B < 75% degradation)
11 | CN1CCC[C@@H]1c1cc2cnc(NC(=O)c3ccc(N4CCN(CC5CCN(c6ccc7c(c6)C(=O)N(C6CCC(=O)NC6=O)C7=O)CC5)CC4)cc3)cc2[nH]1 (stereo partly drawn) [Example 221, 4-(4-((1-(2-(2,6-dioxopiperidin-3-yl)-1,3-dioxoisoindolin-5-yl)piperidin-4-yl)methyl)piperazin-1-yl)-N-(2-((R)-1-methylpyrrolidin-2-yl)-1H-pyrrolo[3,2-c]pyridin-6-yl)benzamide] | C (Category C: 25% ≤ C < 50% degradation) | B (Category B: 50% ≤ B < 75% degradation) | B (Category B: 50% ≤ B < 75% degradation)
12 | CN1CCC[C@@H]1c1cc2cnc(NC(=O)c3ccc(N4CCN(CC5CCN(c6ccc7c(c6)CN(C6CCC(=O)NC6=O)C7=O)CC5)CC4)cc3)cc2[nH]1 (stereo partly drawn) [Example 222, 4-(4-((1-(2-(2,6-dioxopiperidin-3-yl)-1-oxoisoindolin-5-yl)piperidin-4-yl)methyl)piperazin-1-yl)-N-(2-((R)-1-methylpyrrolidin-2-yl)-1H-pyrrolo[3,2-c]pyridin-6-yl)benzamide] | C (Category C: 25% ≤ C < 50% degradation) | B (Category B: 50% ≤ B < 75% degradation) | B (Category B: 50% ≤ B < 75% degradation)
13 | CN1CCC[C@@H]1c1cc2cnc(NC(=O)c3ccc(CCCCC#Cc4ccc5c(c4)CN(C4CCC(=O)NC4=O)C5=O)cc3F)cc2[nH]1 (stereo partly drawn) [Example 223, 4-(6-(2-(2,6-dioxopiperidin-3-yl)-1-oxoisoindolin-5-yl)hex-5-yn-1-yl)-2-fluoro-N-(2-((R)-1-methylpyrrolidin-2-yl)-1H-pyrrolo[3,2-c]pyridin-6-yl)benzamide] | D (Category D: D < 25% degradation) | C (Category C: 25% ≤ C < 50% degradation) | D (Category D: D < 25% degradation)
14 | CN1CCC[C@@H]1c1cc2cnc(NC(=O)c3ccc(N4CCC(CC#Cc5ccc6c(c5)CN(C5CCC(=O)NC5=O)C6=O)CC4)nc3)cc2[nH]1 (stereo partly drawn) [Example 224, 6-(4-(3-(2-(2,6-dioxopiperidin-3-yl)-1-oxoisoindolin-5-yl)prop-2-yn-1-yl)piperidin-1-yl)-N-(2-((R)-1-methylpyrrolidin-2-yl)-1H-pyrrolo[3,2-c]pyridin-6-yl)nicotinamide] | C (Category C: 25% ≤ C < 50% degradation) | C (Category C: 25% ≤ C < 50% degradation) | C (Category C: 25% ≤ C < 50% degradation)
